pEC50, pIC50, pKi: −log10 of the molar value. Counter-ions that a name gives are not always drawn. Like-named read-outs stand apart in the source and are kept apart here.
Assays:
5-HT2B [1] = biological target: T1, 5-HT2B (Homo sapiens, UniProt P41595); assay: cell-based; type: cell-based; set-up: expressed in transfected cells; host or cells: HEK293T; conditions: for Emax: 1 h, read-out: % efficacy vs 5-HT@ 100%, 5-HT2B; for IC50: HEK293T cells, 1 hour at 37° C., read-out: IC50 nM 5-HT2 Gq Dissociation BRET assay, 5-HT2B
dopamine receptors = conditions: cited from earlier work
5-HT2A [2] = biological target: T2, 5-HT2A (Homo sapiens, UniProt P28223); conditions: relative to serotonin at 100%; cited from earlier work
5-HT2B [3] = biological target: T1, 5-HT2B; conditions: relative to serotonin at 100%; cited from earlier work
5-HT3 = biological target: T3, 5-HT3 (Homo sapiens, UniProt P46098); conditions: read-out: Ki 5-HT3; cited from earlier work
T3 sequence (P46098 24-478): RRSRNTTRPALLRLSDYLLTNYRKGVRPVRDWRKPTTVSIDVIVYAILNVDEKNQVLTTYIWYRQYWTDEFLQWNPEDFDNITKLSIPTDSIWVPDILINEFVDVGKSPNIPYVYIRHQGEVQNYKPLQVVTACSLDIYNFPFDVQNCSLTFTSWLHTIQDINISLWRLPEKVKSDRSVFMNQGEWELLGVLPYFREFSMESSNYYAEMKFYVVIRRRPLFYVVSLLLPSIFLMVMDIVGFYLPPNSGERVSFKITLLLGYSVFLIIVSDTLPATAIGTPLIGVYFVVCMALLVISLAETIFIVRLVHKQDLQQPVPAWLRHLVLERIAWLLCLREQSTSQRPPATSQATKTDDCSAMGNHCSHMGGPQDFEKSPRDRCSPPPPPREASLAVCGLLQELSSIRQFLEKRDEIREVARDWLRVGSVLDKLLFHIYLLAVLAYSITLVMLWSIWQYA

5-HT2C [4] = biological target: T4, 5-HT2C (Homo sapiens, UniProt P28335); assay: cell-based; set-up: expressed in transfected cells; host or cells: HEK293T; conditions: for Emax: read-out: % efficacy vs 5-HT@ 100%, 5-HT2C; for IC50: HEK293T cells, 1 hour at 37° C., read-out: IC50 nM 5-HT2 Gq Dissociation BRET assay, 5-HT2C
T4 sequence (P28335 33-458): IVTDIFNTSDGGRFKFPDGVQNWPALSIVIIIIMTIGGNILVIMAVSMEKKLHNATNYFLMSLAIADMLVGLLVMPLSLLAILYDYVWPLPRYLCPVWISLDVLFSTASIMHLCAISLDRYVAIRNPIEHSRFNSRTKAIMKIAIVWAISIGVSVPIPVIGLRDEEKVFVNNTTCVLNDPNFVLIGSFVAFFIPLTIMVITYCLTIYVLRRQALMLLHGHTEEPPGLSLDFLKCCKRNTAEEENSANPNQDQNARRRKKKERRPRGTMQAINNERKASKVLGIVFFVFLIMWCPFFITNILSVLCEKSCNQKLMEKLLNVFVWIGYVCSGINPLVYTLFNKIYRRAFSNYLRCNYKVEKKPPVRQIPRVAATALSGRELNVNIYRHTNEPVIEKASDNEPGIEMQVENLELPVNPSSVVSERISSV

5-HT2C [5] = biological target: T4, 5-HT2C; conditions: read-out: agonist potency at human 5-HT2C receptor; cited from earlier work
5-HT2A [6] = biological target: T2, 5-HT2A; assay: 5-HT2 Gq-Dissociation BRET assay; type: cell-based; set-up: expressed in transfected cells; host or cells: HEK293T; conditions: for IC50: HEK293T cells, 1 hour at 37° C.; for Emax: read-out: % efficacy vs 5-HT@ 100%, 5-HT2A
patients = conditions: cited from earlier work

T2 sequence (P28223 whole entry): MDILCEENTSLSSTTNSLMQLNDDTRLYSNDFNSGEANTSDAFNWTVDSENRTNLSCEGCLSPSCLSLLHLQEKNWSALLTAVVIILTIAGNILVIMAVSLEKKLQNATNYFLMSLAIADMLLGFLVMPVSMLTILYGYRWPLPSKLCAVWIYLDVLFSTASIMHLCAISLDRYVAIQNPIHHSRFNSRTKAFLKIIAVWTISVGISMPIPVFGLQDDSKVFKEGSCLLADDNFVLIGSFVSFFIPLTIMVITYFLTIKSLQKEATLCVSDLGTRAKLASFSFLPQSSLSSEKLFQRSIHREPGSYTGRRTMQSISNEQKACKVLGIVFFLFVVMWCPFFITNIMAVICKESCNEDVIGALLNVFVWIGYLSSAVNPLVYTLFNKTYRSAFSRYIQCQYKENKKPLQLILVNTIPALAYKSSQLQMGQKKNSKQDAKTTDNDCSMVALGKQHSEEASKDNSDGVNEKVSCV
T1 sequence (P41595 whole entry): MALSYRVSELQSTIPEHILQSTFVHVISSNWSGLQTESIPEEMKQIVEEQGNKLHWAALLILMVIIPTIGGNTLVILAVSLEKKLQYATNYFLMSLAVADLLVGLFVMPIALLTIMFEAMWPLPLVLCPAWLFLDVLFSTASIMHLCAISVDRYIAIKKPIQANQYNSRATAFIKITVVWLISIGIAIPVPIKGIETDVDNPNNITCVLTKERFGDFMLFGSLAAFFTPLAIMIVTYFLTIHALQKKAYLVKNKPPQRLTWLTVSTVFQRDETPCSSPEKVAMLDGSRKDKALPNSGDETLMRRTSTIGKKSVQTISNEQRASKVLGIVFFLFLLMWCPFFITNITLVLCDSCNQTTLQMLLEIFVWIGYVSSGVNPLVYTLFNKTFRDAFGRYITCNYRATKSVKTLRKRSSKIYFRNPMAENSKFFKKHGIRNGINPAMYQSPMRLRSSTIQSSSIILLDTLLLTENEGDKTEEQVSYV

Compound	Emax (5-HT2C [4]) [%]	IC50 (5-HT2A [6]) [nM]	Emax (5-HT2A [6]) [%]	Emax (5-HT2B [1]) [%]	IC50 (5-HT2B [1]) [nM]	IC50 (5-HT2C [4]) [nM]	also measured
CN(C)CCc1c[nH]c2cccc(O)c12 [Psilocin, psilocin]							% efficacy vs 5-HT@ 100%, 5-HT2B (5-HT2B [1]): 1.07 nM (63%); effect on dopamine receptors (dopamine receptors): no significant effect on dopamine receptors; Efficacy (in parentheses), 5-HT2A (5-HT2A [2]): 43%; Efficacy (in parentheses), 5-HT2B (5-HT2B [3]): 45%; pKi (5-HT3): < 5.00
CCCCn1cc(CCN(C)C)c2c(O)cccc21 [Example 6, 1-butyl-3-(2-(dimethylamino)ethyl)-1H-indol-4-ol, reference compound]	48	1800	18				5-HT2 Gq Dissociation BRET assay, 5-HT2B, activity class (5-HT2B [1]): Not Active; pIC50 (5-HT2C [4]): 8.79; pEC50 (5-HT2C [5]): ~6.22
COc1ccccc1CN(C)CCc1cn(C)c2cccc(O)c12 [Example 25, 3-(2-((2-methoxybenzyl)(methyl)amino)ethyl)-1-methyl-1H-indol-4-ol hydrochloride]	70	770	39	14	4000	2.4	
CN(C)CCc1cn(C2COC2)c2cccc(O)c12 [Example 10, 3-(2-(dimethylamino)ethyl)-1-(oxetan-3-yl)-1H-indol-4-ol]	60	4000	50			1070	5-HT2 Gq Dissociation BRET assay, 5-HT2B, activity class (5-HT2B [1]; Not Active): Not Active
CN(C)CCc1cn(C)c2cccc(O)c12 [Example 1, 3-(2-(dimethylamino)ethyl)-1-methyl-1H-indol-4-ol]	92		73	40			
CCN(C)CCc1cn(C)c2cccc(O)c12 [Example 12, 3-(2-(ethyl(methyl)amino)ethyl)-1-methyl-1H-indol-4-ol hydrochloride]	84	133	66	44	83	2.8	
CN(C)CCc1cn(CC(F)F)c2cccc(O)c12 [Example 3, 1-(2,2-difluoroethyl)-3-(2-(dimethylamino)ethyl)-1H-indol-4-ol]	80	188	48			2.7	5-HT2 Gq Dissociation BRET assay, 5-HT2B, activity class (5-HT2B [1]; Not Active): Not Active
Cn1cc(CCNCC2CC2)c2c(O)cccc21 [Example 21, 3-(2-((cyclopropylmethyl)amino)ethyl)-1-methyl-1H-indol-4-ol hydrochloride]	40	497	61	46	328	15	
Cn1cc(CCNCC(F)F)c2c(O)cccc21 [Example 22, 3-(2-((2,2-difluoroethyl)amino)ethyl)-1-methyl-1H-indol-4-ol hydrochloride]	82	4200	78	75	1420	1890	
CC(C)N(CCc1cn(C)c2cccc(O)c12)C(C)C [Example 14, 3-(2-(diisopropylamino)ethyl)-1-methyl-1H-indol-4-ol hydrochloride]	98	253	92	68	49.1	393	
CN(CCc1cn(C)c2cccc(O)c12)CC1CC1 [Example 16, 3-(2-((cyclopropylmethyl)(methyl)amino)ethyl)-1-methyl-1H-indol-4-ol hydrochloride]	54	140	55	19	0.245	14.9	
CC(C)N(C)CCc1cn(C)c2cccc(O)c12 [Example 13, 3-(2-(isopropyl(methyl)amino)ethyl)-1-methyl-1H-indol-4-ol hydrochloride]	105	112	85	83	42.1	63.5	
CN(C)CCc1cn(C2CCC2)c2cccc(O)c12 [Example 9, 1-cyclobutyl-3-(2-(dimethylamino)ethyl)-1H-indol-4-ol]	44	4050	53			3	5-HT2 Gq Dissociation BRET assay, 5-HT2B, activity class (5-HT2B [1]; Not Active): Not Active
COc1ccccc1CNCCc1cn(C)c2cccc(O)c12 [Example 24, 3-(2-((2-methoxybenzyl)amino)ethyl)-1-methyl-1H-indol-4-ol hydrochloride]	115	10	93	56	8.3	1.6	
CN(C)CCc1cn(CC2CC2)c2cccc(O)c12 [Example 8, 1-(cyclopropylmethyl)-3-(2-(dimethylamino)ethyl)-1H-indol-4-ol]	50	28	29			0.12	5-HT2 Gq Dissociation BRET assay, 5-HT2B, activity class (5-HT2B [1]; Not Active): Not Active
C[C@H]1CNCCc2ccc(Cl)cc21 [Locaserin]							risk of cardiac valvulopathy (patients): no increased risk of cardiac valvulopathy
CCN(CC)CCc1cn(C)c2cccc(O)c12 [Example 18, 3-(2-(diethylamino)ethyl)-1-methyl-1H-indol-4-ol hydrochloride]	70	241	60	56	64	31	
CN(C)CCc1cn(C)c2cccc(O)c12 [Example 1, 3-(2-(dimethylamino)ethyl)-1-methyl-1H-indol-4-ol, reference compound]							pEC50 (5-HT2C [4]; found by the inventors, read-out: functional potency at human 5-HT2C receptors): ~8.00; pEC50 (5-HT2A [6]; found by the inventors, read-out: potency at 5-HT2A receptors): ~7.07
CN(CCc1cn(C)c2cccc(O)c12)CC(F)F [Example 17, 3-(2-((2,2-difluoroethyl)(methyl)amino)ethyl)-1-methyl-1H-indol-4-ol hydrochloride]	66	8400	54	24	376	833	
CCCn1cc(CCN(C)C)c2c(O)cccc21 [Example 4, 3-(2-(dimethylamino)ethyl)-1-propyl-1H-indol-4-ol]	67	1150	37			3	5-HT2 Gq Dissociation BRET assay, 5-HT2B, activity class (5-HT2B [1]; Not Active): Not Active
